Source: patent publication US20050137135A1 (priority 2002, published 2005)
One block for each molecule: values may come before it. Square brackets hold non-standard residues; d marks the D form. Ends that are not written are not given here. Peptide text beside a SMILES is read from it. Ahx = NCCCCCC(=O)O

Legend:
[1] = molecular target: T1, rat pancreatic islet (wild type) GIP-receptor (Rattus norvegicus, UniProt P43219); test: biochemical; assay type: binding; conditions: for inhibition at 20 µM: read-out: Receptor Binding % Displacement at 20 μM; for Receptor Binding % Displacement at 10 μM: 10 μM peptide, 125I-GIP; for Percent displacement of 125I-GIP from wtGIPR cells: 50 micromolar peptide analogue, FIG. 9
T1 construct: expressed in transfected cells; host or cells: CHO-K1 (Chinese hamster ovary)
T1 sequence (P43219 19-455): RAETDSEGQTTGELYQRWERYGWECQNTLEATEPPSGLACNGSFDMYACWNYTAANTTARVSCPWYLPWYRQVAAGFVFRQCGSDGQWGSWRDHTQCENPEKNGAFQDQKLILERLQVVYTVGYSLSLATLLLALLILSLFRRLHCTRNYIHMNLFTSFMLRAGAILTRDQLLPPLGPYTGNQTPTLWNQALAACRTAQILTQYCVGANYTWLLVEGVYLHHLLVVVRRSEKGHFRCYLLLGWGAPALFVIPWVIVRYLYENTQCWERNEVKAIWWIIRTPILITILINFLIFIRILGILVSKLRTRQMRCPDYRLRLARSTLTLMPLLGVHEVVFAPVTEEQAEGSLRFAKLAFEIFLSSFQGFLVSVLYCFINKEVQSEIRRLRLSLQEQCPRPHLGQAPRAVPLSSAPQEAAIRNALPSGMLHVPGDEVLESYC
Protocol: (§1) Cells were cultured in DMEM/F12, supplemented with 10% newborn calf serum, 50 units/ml penicillin G, and 50 μg/ml streptomycin (Culture media and antibiotics from Gibco BRL, Life Technologies). Cells were grown in 75 cm^2 flasks until 80-90% confluent, when they were split and seeded onto 24 well plates at a density of 50,000 cells/well. Experiments were carried out 48 h later.
Binding studies using ^125I-labeled spGIP1-42, purified by high performance liquid chromatography (HPLC), were performed essentially as described previously-[21]. wtGIP-R1 Cells (1-5×10^5/well) were washed twice at 4° C. in binding buffer (BB), consisting of DMEM/F12 (GIBCO), 15 mM HEPES, 0.1% bovine serum albumin (BSA), 1% Trasylol (aprotinin; Bayer), pH 7.4. They were incubated for 12-16 h at 4° C. with ^125I-spGIP (50,000 cpm) in the presence or absence of unlabeled GIP1-42 or analogue. Following incubation, cells were washed twice with ice cold buffer, solubilized with 0.1 M NaOH (1 ml), and transferred to culture tubes for counting of cell-associated radioactivity. Nonspecific binding was defined as that measured in the presence of 1 μM GIP1-42 or GIP1-30, and specific binding expressed as % of binding in the absence of competitor (% B/Bo).

[2] = molecular target: T1, rat pancreatic islet (wild type) GIP-receptor; test: cAMP production in CHO-K1 cells expressing the GIP-receptor (wtGIP-R1 cells); assay type: cell-based; conditions: for cAMP Production Max. cAMP (Fold Basal): Table 3, cyclic AMP stimulated by 20 μM peptide if plateau levels were not achieved; for cAMP Production (Fold Basal) 10 μM: 10 μM peptide; for cAMP Production (Fold Basal) 10 μM / cAMP Production (Fold Basal) 20 μM: basal cyclic AMP = 2.737 ± 0.079 fmol/1000 cells; for cAMP Production (Fold Basal) 20 μM: 20 μM peptide
Protocol: as §1
Cells were extracted with 70% ethanol and cAMP levels measured by radioimmunoassay (Biomedical Technologies, Stoughton, Mass.). Data are expressed as fmol/1000 cells or % maximal GIP1-42-stimulated cAMP production (inhibition experiments).

Molecule: YAEGTFISDYSIAMEKEKQQDFVNWLLAQK-NH2 [GIP(1-14)(EKEK)(19-30)NH2]
- inhibition at 20 µM [1]: 98.7 ± 1.1%
- cAMP Production Max. cAMP (Fold Basal) [2]: 80.6 ± 5.6 Fold Basal

Molecule: YAEGTFAAAAQQDFVNWLLAQK-NH2 [GIP(l-6)(AAAA)(19-30)NH2]
- inhibition at 20 µM [1]: 88.7 ± 3%
- cAMP Production Max. cAMP (Fold Basal) [2]: 7.21 ± 0.99 Fold Basal

Molecule: YAEGTFEKEEKEKEEKEQQDFVNWLLAQK-NH2
- inhibition at 20 µM [1]: 75.1 ± 2.7%
- cAMP Production Max. cAMP (Fold Basal) [2]: 84.9 ± 8.1 Fold Basal

- Receptor Binding % Displacement at 10 μM [1]: −6.1 ± 3.4%
Molecule: 1-7NH2: GIP fragment 1-7 amide (YAEGTFI-NH2)

Molecule: CC[C@H](C)[C@H](NC(=O)[C@H](CCCCN)NC(=O)[C@@H](N)CC(=O)O)C(=O)N[C@@H](Cc1c[nH]cn1)C(=O)N[C@@H](CCC(N)=O)C(=O)N[C@@H](CCC(N)=O)C(=O)N[C@@H](CC(=O)O)C(=O)N[C@@H](Cc1ccccc1)C(=O)N[C@H](C(=O)N[C@@H](CC(N)=O)C(=O)N[C@@H](Cc1c[nH]c2ccccc12)C(=O)N[C@@H](CC(C)C)C(=O)N[C@@H](CC(C)C)C(=O)N[C@@H](C)C(=O)N[C@@H](CCC(N)=O)C(=O)N[C@@H](CCCCN)C(=O)NCC(=O)N[C@@H](CCCCN)C(=O)N[C@@H](CCCCN)C(=O)N[C@@H](CC(N)=O)C(=O)N[C@@H](CC(=O)O)C(=O)N[C@@H](Cc1c[nH]c2ccccc12)C(=O)N[C@@H](CCCCN)C(=O)N[C@@H](Cc1c[nH]cn1)C(=O)N[C@@H](CC(N)=O)C(=O)N[C@H](C(=O)N[C@H](C(=O)N[C@@H](CCC(N)=O)C(=O)O)[C@@H](C)O)[C@@H](C)CC)C(C)C [15-42OH]
- cAMP Production (Fold Basal) 10 μM [2]: 1.02 ± 0.10 Fold Basal
- cAMP Production (Fold Basal) 20 μM [2]: 1.01 ± 0.03 Fold Basal

Molecule: KIRQQDFVNWLLAQK-NH2 [16-30NH2]
- cAMP Production (Fold Basal) 10 μM [2]: 1.04 ± 0.06 Fold Basal
- cAMP Production (Fold Basal) 20 μM [2]: 0.80 ± 0.02 Fold Basal

Molecule: CC(C)C[C@H](NC(=O)[C@H](CC(C)C)NC(=O)[C@H](Cc1c[nH]c2ccccc12)NC(=O)[C@H](CC(N)=O)NC(=O)[C@@H](NC(=O)[C@H](Cc1ccccc1)NC(=O)[C@H](CC(=O)O)NC(=O)[C@H](CCC(N)=O)NC(=O)[C@H](CCC(N)=O)NC(=O)CCCCCNC(=O)CCCCCNC(=O)CCCCCNC(=O)[C@H](Cc1ccccc1)NC(=O)[C@@H](NC(=O)CNC(=O)[C@H](CCC(=O)O)NC(=O)[C@H](C)NC(=O)[C@@H](N)Cc1ccc(O)cc1)[C@@H](C)O)C(C)C)C(=O)N[C@@H](C)C(=O)N[C@@H](CCC(N)=O)C(=O)N[C@@H](CCCCN)C(N)=O [GIP(1-6)(Ahx)3(19-30)NH2] (H-YAEGTF[Ahx][Ahx][Ahx]QQDFVNWLLAQK-NH2; N-terminus assumed)
- inhibition at 20 µM [1]: 67.1 ± 1%
- cAMP Production Max. cAMP (Fold Basal) [2]: 13.5 ± 1.5 Fold Basal

Molecule: CC(C)C[C@H](NC(=O)[C@H](CC(C)C)NC(=O)[C@H](Cc1c[nH]c2ccccc12)NC(=O)[C@H](CC(N)=O)NC(=O)[C@@H](NC(=O)[C@H](Cc1ccccc1)NC(=O)[C@H](CC(=O)O)NC(=O)[C@H](CCC(N)=O)NC(=O)[C@H](CCC(N)=O)NC(=O)CCCCCNC(=O)[C@H](Cc1ccccc1)NC(=O)[C@@H](NC(=O)CNC(=O)[C@H](CCC(=O)O)NC(=O)[C@H](C)NC(=O)[C@@H](N)Cc1ccc(O)cc1)[C@@H](C)O)C(C)C)C(=O)N[C@@H](C)C(=O)N[C@@H](CCC(N)=O)C(=O)N[C@@H](CCCCN)C(N)=O [GIP(1-6)(Ahx)1(19-30)NH2] (H-YAEGTF[Ahx]QQDFVNWLLAQK-NH2; N-terminus assumed)
- inhibition at 20 µM [1]: 62 ± 4.3%
- cAMP Production Max. cAMP (Fold Basal) [2]: 95.9 ± 8.6 Fold Basal

Molecule: CC[C@H](C)[C@H](NC(=O)[C@H](CO)NC(=O)[C@H](Cc1ccc(O)cc1)NC(=O)[C@H](CC(=O)O)NC(=O)[C@H](CO)NC(=O)[C@@H](NC(=O)[C@H](Cc1ccccc1)NC(=O)[C@@H](NC(=O)CNC(=O)[C@H](CCC(=O)O)NC(=O)[C@H](C)NC(=O)[C@@H](N)Cc1ccc(O)cc1)[C@@H](C)O)[C@@H](C)CC)C(=O)N[C@@H](C)C(=O)N[C@@H](CCSC)C(=O)N[C@@H](CC(=O)O)C(=O)N[C@@H](CCCCN)C(=O)N[C@H](C(=O)N[C@@H](Cc1c[nH]cn1)C(=O)N[C@@H](CCC(N)=O)C(=O)N[C@@H](CCC(N)=O)C(=O)N[C@@H](CC(=O)O)C(=O)N[C@@H](Cc1ccccc1)C(=O)N[C@H](C(=O)N[C@@H](CC(N)=O)C(=O)N[C@@H](Cc1c[nH]c2ccccc12)C(=O)N[C@@H](CC(C)C)C(=O)N[C@@H](CC(C)C)C(=O)N[C@@H](C)C(=O)N[C@@H](CCC(N)=O)C(=O)N[C@@H](CCCCN)C(=O)NCC(=O)N[C@@H](CCCCN)C(=O)N[C@@H](CCCCN)C(=O)N[C@@H](CC(N)=O)C(=O)N[C@@H](CC(=O)O)C(=O)N[C@@H](Cc1c[nH]c2ccccc12)C(=O)N[C@@H](CCCCN)C(=O)N[C@@H](Cc1c[nH]cn1)C(=O)N[C@@H](CC(N)=O)C(=O)N[C@H](C(=O)N[C@H](C(=O)N[C@@H](CCC(N)=O)C(=O)O)[C@@H](C)O)[C@@H](C)CC)C(C)C)[C@@H](C)CC [GIP(1-42)OH, reference compound]
- Receptor Binding % Displacement at 10 μM [1]: 100%
- inhibition at 20 µM [1]: 100%

Molecule: CC(C)C[C@H](NC(=O)[C@H](CC(C)C)NC(=O)[C@H](Cc1c[nH]c2ccccc12)NC(=O)[C@H](CC(N)=O)NC(=O)[C@@H](NC(=O)[C@H](Cc1ccccc1)NC(=O)[C@H](CC(=O)O)NC(=O)[C@H](CCC(N)=O)NC(=O)[C@H](CCC(N)=O)NC(=O)CCCCCNC(=O)CCCCCNC(=O)[C@H](Cc1ccccc1)NC(=O)[C@@H](NC(=O)CNC(=O)[C@H](CCC(=O)O)NC(=O)[C@H](C)NC(=O)[C@@H](N)Cc1ccc(O)cc1)[C@@H](C)O)C(C)C)C(=O)N[C@@H](C)C(=O)N[C@@H](CCC(N)=O)C(=O)N[C@@H](CCCCN)C(N)=O [GIP(1-6)(Ahx)2(19-30)NH2] (H-YAEGTF[Ahx][Ahx]QQDFVNWLLAQK-NH2; N-terminus assumed)
- inhibition at 20 µM [1]: 75.3 ± 3.3%
- cAMP Production Max. cAMP (Fold Basal) [2]: 2.55 ± 0.84 Fold Basal

Molecule: CC[C@H](C)[C@H](NC(=O)[C@H](CO)NC(=O)[C@H](Cc1ccc(O)cc1)NC(=O)[C@H](CC(=O)O)NC(=O)[C@H](CO)NC(=O)[C@@H](NC(=O)[C@H](Cc1ccccc1)NC(=O)[C@@H](NC(=O)CNC(=O)[C@H](CCC(=O)O)NC(=O)[C@H](C)NC(=O)[C@@H](N)Cc1ccc(O)cc1)[C@@H](C)O)[C@@H](C)CC)C(=O)N[C@@H](C)C(=O)N[C@@H](CCSC)C(=O)NCCCCCC(=O)NCCCCCC(=O)N[C@@H](CCC(N)=O)C(=O)N[C@@H](CCC(N)=O)C(=O)N[C@@H](CC(=O)O)C(=O)N[C@@H](Cc1ccccc1)C(=O)N[C@H](C(=O)N[C@@H](CC(N)=O)C(=O)N[C@@H](Cc1c[nH]c2ccccc12)C(=O)N[C@@H](CC(C)C)C(=O)N[C@@H](CC(C)C)C(=O)N[C@@H](C)C(=O)N[C@@H](CCC(N)=O)C(=O)N[C@@H](CCCCN)C(N)=O)C(C)C [GIP(1-14)(Ahx)2(19-30)NH2] (H-YAEGTFISDYSIAM[Ahx][Ahx]QQDFVNWLLAQK-NH2; N-terminus assumed)
- inhibition at 20 µM [1]: 85.8 ± 1.6%
- cAMP Production Max. cAMP (Fold Basal) [2]: 95.9 ± 3.2 Fold Basal

Molecule: YAEGTFISDYSIAMAAAAQQDFVNWLLAQK-NH2 [GIP(1-14)(AAAA)(19-30)NH2]
- inhibition at 20 µM [1]: 100 ± 0.9%
- cAMP Production Max. cAMP (Fold Basal) [2]: 82.1 ± 2.8 Fold Basal

Molecule: YAEGTFISDYSIAMQQDFVNWLLAQK-NH2 [GIP(1-14)(19-30)NH2]
- inhibition at 20 µM [1]: 95.4 ± 0.7%
- cAMP Production Max. cAMP (Fold Basal) [2]: 127 ± 22 Fold Basal

Molecule: YAEGTFQQDFVNWLLAQK-NH2 [GIP(1-6)(19-30)NH2]
- inhibition at 20 µM [1]: 88.2 ± 0.7%
- cAMP Production Max. cAMP (Fold Basal) [2]: 1.81 ± 0.42 Fold Basal

Molecule: YAAGTFISDYSIAM-OH [A3]
- Percent displacement of 125I-GIP from wtGIPR cells [1]: unable to displace measurable

Molecule: YAEGTFEKEKQQDFVNWLLAQK-NH2 [GIP(1-6)(EKEK)(19-30)NH2]
- inhibition at 20 µM [1]: 86.8 ± 1.6%
- cAMP Production Max. cAMP (Fold Basal) [2]: 8.17 ± 0.87 Fold Basal

- Percent displacement of 125I-GIP from wtGIPR cells [1]: unable to displace measurable
Molecule: YAEGAFISDYSIAM-OH [A5]
